We go through three compounds from patent publication US12077503B2, “Substituted cyclic amides and their use as herbicides” (FMC CORPORATION, priority 2015, dated 2024).

Structures are written as SMILES. Read-outs that look alike come from different tables or passages of the source.

What all share (assay type): in vivo
In assay [1] the test system is pigweed (Amaranthus retroflexus). Description: Test A preemergence. The conditions noted are these: Amaranthus retroflexus, pre-emergence, 240 h; for pest or weed control at 125 g/ha: 125 g ai/ha; for pest or weed control at 500 g/ha: 500 g ai/ha.
Assay [2] has as its system Galium (catchweed bedstraw, Galium aparine). Description: Test A postemergence. The conditions noted are these: Galium, post-emergence, 240 h, postemergence; for pest or weed control at 125 g/ha: 125 g ai/ha; for pest or weed control at 500 g/ha: 500 g ai/ha, visual injury, 0 to 100 scale (0 no effect, 100 complete control), read-out: Plant response rating, Galium. Summed up:
(§1)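 Seeds sprayed preemergence with a directed soil spray, or plants at 2 to 10 cm height and one- to two-leaf stage sprayed postemergence, with test chemicals in a non-phytotoxic solvent mixture containing surfactant, in loam soil–sand blend. Injury rated visually against untreated controls after about 10 d in greenhouse, 0 (no effect) to 100 (complete control).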

The next assay relates to Kochia (Kochia scoparia). Description: Test A postemergence. The conditions noted are these: Bassia scoparia, post-emergence, 240 h, postemergence; for pest or weed control at 125 g/ha: 125 g ai/ha; for pest or weed control at 500 g/ha: 500 g ai/ha, visual injury, 0 to 100 scale (0 no effect, 100 complete control), read-out: Plant response rating, Kochia. Summed up:
as §1

The subject of assay [3] is barnyardgrass (Echinochloa crus-galli). Description: Test A postemergence. The conditions noted are these: Echinochloa crus-galli, post-emergence, 240 h, postemergence; for pest or weed control at 125 g/ha: 125 g ai/ha; for pest or weed control at 500 g/ha: 500 g ai/ha, visual injury, 0 to 100 scale (0 no effect, 100 complete control), read-out: Plant response rating, Barnyardgrass. Summed up:
as §1

The test system of assay [4] is blackgrass (Alopecurus myosuroides). Description: Test A postemergence. The conditions noted are these: Alopecurus myosuroides, post-emergence, 240 h, postemergence; for pest or weed control at 125 g/ha: 125 g ai/ha; for pest or weed control at 500 g/ha: 500 g ai/ha, visual injury, 0 to 100 scale (0 no effect, 100 complete control), read-out: Plant response rating, Blackgrass. The method in brief:
as §1

Another assay deals with corn (Zea mays). Description: Test A postemergence. The following applies: Zea mays, post-emergence, 240 h, postemergence; for plant injury at 125 g/ha: 125 g ai/ha; for Corn plant response rating (crop injury, 0 = no effect, 100 = complete kill) at 500 g/ha: 500 g ai/ha, visual injury, 0 to 100 scale (0 no effect, 100 complete control). Summed up: as §1
Assay [5] has as its system giant foxtail (Setaria faberii). Description: Test A postemergence. The following applies: Setaria faberi, post-emergence, 240 h, postemergence; for pest or weed control at 125 g/ha: 125 g ai/ha; for pest or weed control at 500 g/ha: 500 g ai/ha, visual injury, 0 to 100 scale (0 no effect, 100 complete control), read-out: Plant response rating, Foxtail, Giant. Summed up:
as §1

Assay [6] concerns pigweed (Amaranthus retroflexus). Description: Test A postemergence. The conditions noted are these: Amaranthus retroflexus, post-emergence, 240 h, 125 g ai/ha, postemergence. The method in brief:
as §1

Assay [7] has as its system ragweed (common ragweed, Ambrosia elatior). Description: Test A postemergence. The following applies: Ambrosia artemisiifolia, post-emergence, 240 h, 125 g ai/ha, postemergence. The method in brief:
as §1

Assay [8] concerns ryegrass, Italian (Italian ryegrass, Lolium multiflorum). Description: Test A postemergence. The following applies: Lolium multiflorum, post-emergence, 240 h, 125 g ai/ha, postemergence. Summed up:
as §1

In assay [9] the test system is wheat (Triticum aestivum). Description: Test A postemergence. The following applies: Triticum aestivum, post-emergence, 240 h, 125 g ai/ha, postemergence. Summed up: as §1
The subject of assay [10] is barnyardgrass (Echinochloa crus-galli). Description: Test B flooded paddy test. The following applies: Echinochloa crus-galli, Flood, 250 g ai/ha, read-out: Barnyardgrass plant response rating. The method in brief:
(§2)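 Greenhouse paddy pots with 2-leaf stage plants received compound by direct addition to floodwater 3 cm deep, kept at that level. Scored visually at 13–15 d versus controls (0 no effect; 100 complete control).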

Assay [11] deals with ducksalad (Heteranthera limosa). Description: Test B flooded paddy test. The following applies: Heteranthera limosa, Flood, 250 g ai/ha, read-out: Ducksalad plant response rating. Summed up:
as §2

The next assay has as its system rice (Oryra sativa). Description: Test B flooded paddy test. The following applies: Oryza sativa, Flood, 250 g ai/ha, read-out: Rice plant response rating. The method in brief: as §2
Assay [12] deals with sedge, umbrella (small-flower umbrella sedge, Cyperus difformis). Description: Test B flooded paddy test. The following applies: Cyperus difformis, Flood, 250 g ai/ha, read-out: Sedge, Umbrella plant response rating. The method in brief:
as §2

The mark [13] stands for this setting: scale of 0 to 100 where 0 is no effect and 100 is complete control.
Where [14] appears, read: Preemergence, visual injury rating after approximately 10 d, read-out: Pigweed plant response rating (0 to 100 scale, 0 is no effect, 100 is complete control).
Setting [15] is: preemergence, visual injury rating about 10 d after treatment, 0 to 100 scale (0 no effect, 100 complete control), read-out: Pigweed plant response rating.
[16] abbreviates: visual injury on 0 to 100 scale (0 no effect, 100 complete control), approx. 10 d, read-out: Galium plant response rating.
The mark [17] stands for this setting: visual injury on 0 to 100 scale (0 no effect, 100 complete control), approx. 10 d, read-out: Kochia plant response rating.
[18] abbreviates: visual injury on 0 to 100 scale (0 no effect, 100 complete control), approx. 10 d, read-out: Barnyardgrass plant response rating.
The mark [19] stands for this setting: visual injury on 0 to 100 scale (0 no effect, 100 complete control), approx. 10 d, read-out: Blackgrass plant response rating.
The mark [20] stands for this setting: visual injury on 0 to 100 scale (0 no effect, 100 complete control), approx. 10 d, read-out: Corn plant response rating.
Setting [21] is: visual injury on 0 to 100 scale (0 no effect, 100 complete control), approx. 10 d, read-out: Foxtail, Giant plant response rating.
[22] abbreviates: visual injury on 0 to 100 scale (0 no effect, 100 complete control), approx. 10 d, read-out: Pigweed plant response rating.
Where [23] appears, read: visual injury on 0 to 100 scale (0 no effect, 100 complete control), approx. 10 d, read-out: Ragweed plant response rating.
The mark [24] stands for this setting: visual injury on 0 to 100 scale (0 no effect, 100 complete control), approx. 10 d, read-out: Ryegrass, Italian plant response rating.
Setting [25] is: visual injury on 0 to 100 scale (0 no effect, 100 complete control), approx. 10 d, read-out: Wheat plant response rating.
Setting [26] is: 0 to 100 scale where 0 is no effect and 100 is complete control.

For `O=C1NC[C@H](c2ccc3c(c2)CCCO3)[C@H]1C(=O)Nc1ccccc1F` [Compound 885], the pest or weed control at 125 g/ha in assay [1] (preemergence, 0 to 100 scale where 0 is no effect and 100 is complete control, read-out: Pigweed plant response rating) is 0%; in assay [2] (visual injury rating after approximately 10 d, read-out: Galium plant response rating (0 to 100 scale, 0 no effect, 100 complete control)), 20%; in the assay on Kochia (Kochia scoparia) (visual injury rating after approximately 10 d, read-out: Kochia plant response rating (0 to 100 scale, 0 no effect, 100 complete control)) it was 0%; in [3] (visual injury rating after approximately 10 d, read-out: Barnyardgrass plant response rating (0 to 100 scale, 0 no effect, 100 complete control)) it was 70%; in [4] (visual injury rating after approximately 10 d, read-out: Blackgrass plant response rating (0 to 100 scale, 0 no effect, 100 complete control)), 0%; in assay [5] (visual injury rating after approximately 10 d, read-out: Foxtail, Giant plant response rating (0 to 100 scale, 0 no effect, 100 complete control)), 40%. For the same compound, the pest or weed control at 125 g/ha in assay [6] (visual injury rating after approximately 10 d, read-out: Pigweed plant response rating (0 to 100 scale, 0 no effect, 100 complete control)) is 0%; in [7] (visual injury rating after approximately 10 d, read-out: Ragweed plant response rating (0 to 100 scale, 0 no effect, 100 complete control)) it was 0%; in [8] (visual injury rating after approximately 10 d, read-out: Ryegrass, Italian plant response rating (0 to 100 scale, 0 no effect, 100 complete control)) it was 0%. For the same compound, in assay [1] (Preemergence, visual injury vs untreated controls after approximately 10 d, read-out: Pigweed plant response rating (0 to 100 scale where 0 is no effect and 100 is complete control)), the pest or weed control at 500 g/ha is 0%. The plant injury at 125 g/ha in the assay with corn (Zea mays) (visual injury rating after approximately 10 d, read-out: Corn plant response rating (0 to 100 scale, 0 no effect, 100 complete control)) amounted to 0%; in assay [9] (visual injury rating after approximately 10 d, read-out: Wheat plant response rating (0 to 100 scale, 0 no effect, 100 complete control)), 0%. Moreover, the pest or weed control at 250 g/ha in assay [10] (setting [13]) came to 0%; in assay [11] (setting [13]) it was 60%; in the assay with rice (Oryra sativa) (setting [13]), 0%; in [12] (setting [13]), 0%.
For the compound `Cc1cc([C@H]2CNC(=O)[C@@H]2C(=O)Nc2ccc(F)cc2F)ccc1C(F)(F)F` [Compound 1043], the pest or weed control at 125 g/ha in assay [1] (setting [14]) stood at 0%; in assay [2] (setting [16]) it was 20%; in the assay on Kochia (Kochia scoparia) (setting [17]), 0%; in [3] (setting [18]) it was 50%; in [4] (setting [19]) it was 20%; in assay [5] (setting [21]), 70%. Besides, the pest or weed control at 125 g/ha in assay [6] (setting [22]), in [7] (setting [23]) and in assay [8] (setting [24]) was 0% each time. The pest or weed control at 500 g/ha turned out to be 20% in [1] (setting [15]); 40% in assay [2] (approx. 10 d); 40% in the assay with Kochia (Kochia scoparia) (approx. 10 d); 80% in assay [3] (approx. 10 d); 30% in assay [4] (approx. 10 d); 80% in assay [5] (approx. 10 d). Moreover, the plant injury at 125 g/ha with corn (Zea mays) (setting [20]) is 20%; in [9] (setting [25]) it was 0%. In addition, in the assay with corn (Zea mays) (approx. 10 d), the Corn plant response rating (crop injury, 0 = no effect, 100 = complete kill) at 500 g/ha came out at 60%. The pest or weed control at 250 g/ha in assay [10] (setting [26]) stood at 0%; in [11] (setting [26]), 90%; with rice (Oryra sativa) (setting [26]) it was 0%; in assay [12] (setting [26]), 0%.
As for `O=C(Nc1ccccc1F)[C@H]1C(=S)NC[C@@H]1c1ccc(C(F)(F)F)cc1` (racemic) [Compound 1047], the pest or weed control at 125 g/ha in assay [1] (setting [14]) is 0%; in assay [2] (setting [16]), 0%; in the assay on Kochia (Kochia scoparia) (setting [17]) it was 0%; in assay [3] (setting [18]), 40%; in assay [4] (setting [19]), 0%; in [5] (setting [21]) it was 50%. Besides, the pest or weed control at 125 g/ha in [6] (setting [22]), in [7] (setting [23]) and in [8] (setting [24]) was 0% throughout. Also, the pest or weed control at 500 g/ha in assay [1] (setting [15]) worked out at 20%; in [2] (approx. 10 d), 50%; in the assay with Kochia (Kochia scoparia) (approx. 10 d), 20%; in [3] (approx. 10 d) it was 80%; in [4] (approx. 10 d), 0%; in assay [5] (approx. 10 d) it was 80%. The plant injury at 125 g/ha (in the assay with corn (Zea mays) (setting [20]); in assay [9] (setting [25])) was 0% each time. Moreover, the Corn plant response rating (crop injury, 0 = no effect, 100 = complete kill) at 500 g/ha with corn (Zea mays) (approx. 10 d) was determined as 0%. The pest or weed control at 250 g/ha (in assay [10] (setting [26]); in [11] (setting [26]); with rice (Oryra sativa) (setting [26]); in assay [12] (setting [26])) was 0% each time.
